Common to all, as to type: cell-based
The test system of one series is LOX IMVI. Put plainly: Melanoma cytotoxicity assay (resazurin). The note with it: for IC50: Homo sapiens, LOX IMVI melanoma cells; for LOX-IMVI (% viability): human, 24 h. The essentials: (§1)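 Cells are plated at roughly 4000 per well and allowed 24 h before compound addition in triplicate. After a further 24 h, resazurin is added for 6 h and fluorescence measured; percent viability is normalized to DMSO-treated wells.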

A further series relates to SK-MEL-25. Put plainly: Melanoma cytotoxicity assay (resazurin). The conditions noted are these: for SK-MEL-25 (% viability): human, 24 h; for IC50: Homo sapiens. The essentials:
as §1
In general terms: Alamar Blue is a resazurin reagent that responds to reducing activity.

The test system of another series is SK-MEL-28. Put plainly: Melanoma cytotoxicity assay (resazurin). The conditions noted are these: for SK-MEL-28 (% viability): human, 24 h; for IC50: Homo sapiens, SK-MEL-28 melanoma cells. The essentials:
as §1

Another series relates to SK-MEL-5. In words: Melanoma cytotoxicity assay (resazurin). The note with it: human, 24 h. The essentials: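 Growth inhibition was scored by resazurin reduction over 6 h, read by fluorescence, after cells had been treated with serially diluted compounds for 24 h. Background from medium-only wells was subtracted and signal expressed relative to DMSO controls.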
The next series concerns HFF-1. Put plainly: Cytotoxicity assay (resazurin). The note with it: Homo sapiens, HFF-1 cells.
In the next series the test system is MALME-3M. In words: Melanoma cytotoxicity assay (resazurin). The note with it: human, 24 h. As for the experimental part:
On day 1, the cell line trypsinized and centrifuged to form cell pellet. The pellet was diluted in media, then counted using Countess automated cell counter. Approximately 4000 cells (198 uL) per well plated in […]. A control well of 200 uL growth media was also prepared. Wells closest to plate perimeter were filled with 200 uL PBS to prevent inner well evaporation. The 96 well plates are incubated in 37° C. incubator at 5% CO2 for 24 hours.
On day 2, compounds were added (in triplicate) along with DMSO/Dacarbazine controls (2 uL) added to bring wells to volume of 200 μL. The 96 well plates are incubated in 37° C. incubator at 5% CO2 for 24 hours.
On day 3, 40 μL of 0.15 mg/ml reszurin solution added to wells. Samples were placed in a 37° C. incubator at 5% CO2 for 6 hours. Excitation and emission for fluorescence measured at 544 nm and 590 nm using BMG Labtech Fluostar Optima plate reader
Percent viability determined by taking average of each triplicate well fluorescence and subtracting GM well reading to remove the background signal. This difference is then divided by the average of the negative control (DMSO) wells to determine percent viability.
IC50s were determined by using cereal dilution of compound to determine viability. Viabilities and concentration of cells are analyzed in Graphpad Prism by creating sigmoidal curve graph, which will determine the IC50 concentration.
We analyzed the ability of the thiazole-androstane derivatives to inhibit growth in various melanoma cell lines. The growth inhibition against melanoma cell lines of various compound is shown below in Tables 19 and 20. Inhibition results are reported as the IC50 concentration in μM of the indicated compound or as the percent viability […] of the indicated compound. NA=not available.

Setting [1] is: SK-MEL-25 melanoma cells (head prints SK-25), read-out: SK-25 IC50.

Read-outs that look alike come from different tables or passages of the source. Some results are limits rather than exact numbers.

As for `C[C@]12CC[C@H]3[C@@H](CC=C4c5sc(Nc6ccccn6)nc5CC[C@@]43C)[C@@H]1CC[C@@H]2O` [IIIa.24, (1S,2R,13R,14S,17S,18S)-2,18-dimethyl-7-(2-pyridylamino)-8-thia-6-azapentacyclo[11.7.0.02,10.05,9.014,18]icosa-5(9),6,10-trien-17-ol], the IC50 with LOX IMVI and in the series with HFF-1 (read-out: HFF-1 (IC50)) was above 20 µM in each case. For the same molecule, the “SK-MEL-25 (% viability)” value in the series on SK-MEL-25 came to 1.76%. Besides, in the series on SK-MEL-28, the “SK-MEL-28 (% viability)” value is on record as 1.50%. Further, the “SK-MEL-5 (% viability)” value in the series with SK-MEL-5 came to 2.25%. Besides, the “MALME-3M (% viability)” value with MALME-3M stood at 10.69%.

As for `Cc1ccc(Nc2nc3c(s2)C2=CC[C@H]4[C@@H]5CC[C@H](O)[C@@]5(C)CC[C@@H]4[C@@]2(C)CC3)cc1` [IIIa.33, (1S,2R,13R,14S,17S,18S)-2,18-dimethyl-7-(4-methylanilino)-8-thia-6-azapentacyclo[11.7.0.02,10.05,9.014,18]icosa-5(9),6,10-trien-17-ol], the IC50 (usually the concentration that inhibits the measured activity by half) with LOX IMVI was 4.64 µM; with LOX IMVI (24 hours, resazurin), below 10 µM; with SK-MEL-25 (setting [1]), 6 µM; in the series with SK-MEL-25 (SK-MEL-25 melanoma cells, 24 hours, resazurin, read-out: SK-MEL-25 (IC50)), below 10 µM; in the series on SK-MEL-28, 6 µM; in the series with SK-MEL-28 (24 hours, resazurin), below 10 µM. Also, the IC50 in the series on HFF-1 (read-out: HFF-1 (IC50)) and with HFF-1 (read-out: IC50 in cell line HFF-1) was 13 µM in each case. In the series on LOX IMVI, the “LOX-IMVI (% viability)” value is 6%. In addition, the “SK-MEL-25 (% viability)” value with SK-MEL-25 stood at 7.53%. Moreover, the “SK-MEL-28 (% viability)” value with SK-MEL-28 is on record as 0.90%. Further, the “SK-MEL-5 (% viability)” value with SK-MEL-5 is listed as 1.21%. Further, the “MALME-3M (% viability)” value with MALME-3M was found to be 23.03%.

Take `C[C@]12CC[C@H]3[C@@H](CC=C4c5sc(Nc6ccc(F)cc6)nc5CC[C@@]43C)[C@@H]1CC[C@@H]2O` [IIIa.12, (1S,2R,13R,14S,17S,18S)-7-(4-fluoroanilino)-2,18-dimethyl-8-thia-6-azapentacyclo[11.7.0.02,10.05,9.014,18]icosa-5(9),6,10-trien-17-ol]: the IC50 in the series on LOX IMVI turned out to be 5.2 µM; in the series with SK-MEL-25 (setting [1]), 7 µM; in the series with SK-MEL-28 it was 10 µM; in the series on HFF-1 (read-out: HFF-1 (IC50)), 24 µM. Further, the “LOX-IMVI (% viability)” value in the series on LOX IMVI is recorded as 12%. In addition, in the series on SK-MEL-25, the “SK-MEL-25 (% viability)” value was found to be 7.33%. Besides, the “SK-MEL-28 (% viability)” value in the series with SK-MEL-28 was 2.35%. Further, in the series on SK-MEL-5, the “SK-MEL-5 (% viability)” value came to 3.66%. Further, the “MALME-3M (% viability)” value in the series with MALME-3M came out at 35.97%.

`C[C@]12CC[C@H]3[C@@H](CC=C4c5sc(Nc6ccc(F)cc6F)nc5CC[C@@]43C)[C@@H]1CC[C@@H]2O` [IIIa.13, (1S,2R,13R,14S,17S,18S)-7-(2,4-difluoroanilino)-2,18-dimethyl-8-thia-6-azapentacyclo[11.7.0.02,10.05,9.014,18]icosa-5(9),6,10-trien-17-ol]: the concentration for half-maximal inhibition (IC50) was determined as 6.42 µM in the series on LOX IMVI, 8 µM in the series on SK-MEL-25 (setting [1]), 11 µM in the series on SK-MEL-28 and 25 µM with HFF-1 (read-out: HFF-1 (IC50)). Besides, the “SK-MEL-25 (% viability)” value in the series on SK-MEL-25 was 8.72%. The “SK-MEL-28 (% viability)” value in the series on SK-MEL-28 is recorded as 3.92%. Moreover, in the series with SK-MEL-5, the “SK-MEL-5 (% viability)” value is given as 4.9%. Also, the “MALME-3M (% viability)” value with MALME-3M is recorded as 20.83%.
